Measurements: patent publication US20040191926A1 (priority 2001, published 2004)

Experiments:
Assay in all cases: Phosphatase panel, pNPP assay
Type in all cases: biochemical
SHP2 = biological target: T1, SHP2 (Homo sapiens, UniProt Q06124); conditions: 2 mM pNPP; read-out: Inhibition Potency, IC50
T1 construct: the catalytic domains of SHP1 and SHP2 were expressed and purified as (His)6-fusion proteins; (His)6; made in house
T1 sequence (Q06124 247-517 limits assumed): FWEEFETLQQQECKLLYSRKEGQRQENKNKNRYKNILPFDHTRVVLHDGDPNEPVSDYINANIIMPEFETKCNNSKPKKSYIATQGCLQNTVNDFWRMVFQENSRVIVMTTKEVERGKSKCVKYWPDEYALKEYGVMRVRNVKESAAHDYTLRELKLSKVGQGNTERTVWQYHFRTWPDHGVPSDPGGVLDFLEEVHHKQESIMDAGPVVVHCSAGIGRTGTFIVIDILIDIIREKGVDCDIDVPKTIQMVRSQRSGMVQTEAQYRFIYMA

PTPα = biological target: T2, PTPα (Homo sapiens, UniProt P18433); conditions: at 10 μM
T2 construct: The intracellular fragment of PTPa, LAR and CD45 containing both of the PTPase domains was cleaved off the fusion protein; GST (cleaved yes); made in house

CD45 = biological target: T3, CD45 (Homo sapiens, UniProt P08575); conditions: at 10 μM
T3 construct: The intracellular fragment of PTPa, LAR and CD45 containing both of the PTPase domains was cleaved off the fusion protein; GST (cleaved yes); made in house
T3 sequence (P08575 599-1306 limits assumed): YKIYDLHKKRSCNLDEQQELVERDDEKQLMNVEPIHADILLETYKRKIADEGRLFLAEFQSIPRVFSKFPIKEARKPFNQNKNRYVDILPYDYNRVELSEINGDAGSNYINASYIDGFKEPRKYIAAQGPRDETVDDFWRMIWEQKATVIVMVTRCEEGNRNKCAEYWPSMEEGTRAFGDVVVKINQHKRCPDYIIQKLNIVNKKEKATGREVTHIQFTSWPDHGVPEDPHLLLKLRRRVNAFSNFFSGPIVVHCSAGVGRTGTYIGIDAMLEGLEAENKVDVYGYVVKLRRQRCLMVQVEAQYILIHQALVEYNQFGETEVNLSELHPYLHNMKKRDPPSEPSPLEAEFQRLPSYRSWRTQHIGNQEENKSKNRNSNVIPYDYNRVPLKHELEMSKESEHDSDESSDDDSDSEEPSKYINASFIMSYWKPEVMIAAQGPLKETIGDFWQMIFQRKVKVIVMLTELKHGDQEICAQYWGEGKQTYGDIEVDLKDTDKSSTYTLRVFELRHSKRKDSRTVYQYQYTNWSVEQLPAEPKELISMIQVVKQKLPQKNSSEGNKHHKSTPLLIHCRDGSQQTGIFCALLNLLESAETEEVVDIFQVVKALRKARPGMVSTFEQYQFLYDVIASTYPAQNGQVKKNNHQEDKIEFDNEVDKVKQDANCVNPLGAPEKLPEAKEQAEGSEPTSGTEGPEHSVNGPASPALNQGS

Cdc25A = biological target: T4, Cdc25A (Homo sapiens, UniProt P30304); conditions: at 10 μM
T4 sequence (P30304 1-524): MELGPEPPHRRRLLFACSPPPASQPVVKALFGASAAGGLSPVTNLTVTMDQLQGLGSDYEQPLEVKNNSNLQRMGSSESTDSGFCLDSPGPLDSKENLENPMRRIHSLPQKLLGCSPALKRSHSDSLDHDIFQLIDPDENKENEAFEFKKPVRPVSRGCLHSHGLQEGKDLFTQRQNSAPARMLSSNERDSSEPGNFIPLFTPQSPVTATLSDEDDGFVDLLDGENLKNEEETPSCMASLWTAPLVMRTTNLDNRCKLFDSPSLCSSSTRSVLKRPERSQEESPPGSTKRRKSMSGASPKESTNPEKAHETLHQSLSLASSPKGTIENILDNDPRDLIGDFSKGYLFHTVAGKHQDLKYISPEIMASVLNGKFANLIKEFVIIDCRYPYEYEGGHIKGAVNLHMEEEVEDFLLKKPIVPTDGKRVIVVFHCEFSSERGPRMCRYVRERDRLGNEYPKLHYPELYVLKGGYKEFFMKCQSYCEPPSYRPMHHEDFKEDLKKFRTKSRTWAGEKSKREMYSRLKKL

PP2Cα = biological target: T5, PP2Cα (Homo sapiens, UniProt P35813); conditions: at 10 μM
T5 sequence (P35813 1-382): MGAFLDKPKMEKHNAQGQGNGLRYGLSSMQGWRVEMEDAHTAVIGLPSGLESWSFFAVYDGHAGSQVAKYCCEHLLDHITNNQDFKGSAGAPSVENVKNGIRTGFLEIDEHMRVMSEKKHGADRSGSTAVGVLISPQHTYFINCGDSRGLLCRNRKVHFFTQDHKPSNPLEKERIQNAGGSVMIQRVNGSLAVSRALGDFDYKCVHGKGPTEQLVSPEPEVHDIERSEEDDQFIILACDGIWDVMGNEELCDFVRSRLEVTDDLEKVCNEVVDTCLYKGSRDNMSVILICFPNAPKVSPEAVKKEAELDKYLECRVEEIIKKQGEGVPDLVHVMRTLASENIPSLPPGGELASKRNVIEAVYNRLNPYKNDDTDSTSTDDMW

With `NC(=O)C(Cc1ccc(C(F)(F)P(=O)(O)O)cc1)NC(=O)C(CC(=O)O)NC(=O)Cc1ccc(C(F)(F)P(=O)(O)O)cc1` (centres unmarked) [Compound 40] the IC50 (SHP2) was 10 µM, the “Inhibition Potency” value (PTPα) was “No inhibition at 10 μM” and the “Inhibition Potency” value (CD45) was “No inhibition at 10 μM”. For the same compound, the “Inhibition Potency” value (Cdc25A) was “No inhibition at 10 μM” and the “Inhibition Potency” value (PP2Cα) was “No inhibition at 10 μM”.
